Laboratory results taken from PubChem BioAssay AID248 (DTP/NCI, 2004).
Where “and” joins values, the source holds several entries; their conditions need not be identical. Equal entries are not always repeated. Toxic doses and inconclusive results are not listed. Cut-off read from the data, not from the text of the source: active = T/C of 150% or more; inactive = T/C below 125%.

System: L1210 leukemia ip in BDF1 mice, survival T/C
Assay: NCI In Vivo Anticancer Drug Screen. Data for tumor model L1210 Leukemia (intraperitoneal) in B6D2F1 (BDF1) mice
Conditions: endpoint: mean survival time, higher = longer survival
Summary of the method: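 Each compound was tested against a transplantable tumor grown in mice. The endpoint was survival, with treated animals benchmarked against vehicle controls as a simple ratio.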

[1] = dose: 100.0 mg/kg/injection, schedule: Q01DX009 (ip), vehicle: saline with Tween-80
[2] = dose: 100.0 mg/kg/injection, schedule: Q04DX003 (ip), vehicle: saline with Tween-80
[3] = dose: 200.0 mg/kg/injection, schedule: Q01DX009 (ip), vehicle: saline with Tween-80
[4] = dose: 200.0 mg/kg/injection, schedule: Q04DX003 (ip), vehicle: saline with Tween-80
[5] = dose: 400.0 mg/kg/injection, schedule: Q01DX009 (ip), vehicle: saline with Tween-80
[6] = dose: 400.0 mg/kg/injection, schedule: Q04DX003 (ip), vehicle: saline with Tween-80
[7] = dose: 100.0 mg/kg/injection, schedule: Q01DX001 (ip), vehicle: saline
[8] = dose: 200.0 mg/kg/injection, schedule: Q01DX001 (ip), vehicle: saline
[9] = dose: 400.0 mg/kg/injection, schedule: Q01DX001 (ip), vehicle: saline
[10] = dose: 100.0 mg/kg/injection, schedule: Q01DX001 (ip), vehicle: carboxymethylcellulose (CMC)
[11] = dose: 200.0 mg/kg/injection, schedule: Q01DX001 (ip), vehicle: carboxymethylcellulose (CMC)
[12] = dose: 400.0 mg/kg/injection, schedule: Q01DX001 (ip), vehicle: carboxymethylcellulose (CMC)
[13] = dose: 50.0 mg/kg/injection, schedule: Q01DX009 (ip), vehicle: saline with Tween-80

Measured: T/C

Cc1cc(Br)c2ccccc2c1NS(=O)(=O)c1ccccc1
inactive: [1] 100 % of control | [2] 109 % of control | [3] 90 % of control | [4] 100 % of control | [5] 92 % of control | [6] 105 % of control

O=C(Oc1c(-c2ccccc2)[nH]c2ccccc12)c1ccc([N+](=O)[O-])cc1
inactive: dose: 100.0 mg/kg/injection, schedule: Q04DX002 (ip), vehicle: Klucel (hydroxypropylcellulose) (HPC) 104 % of control | dose: 200.0 mg/kg/injection, schedule: Q04DX002 (ip), vehicle: Klucel (hydroxypropylcellulose) (HPC) 101 % of control | dose: 400.0 mg/kg/injection, schedule: Q04DX002 (ip), vehicle: Klucel (hydroxypropylcellulose) (HPC) 90 % of control

C#CC(O)(c1ccccc1)c1ccccc1
inactive: [7] 103 % of control | [8] 107 % of control | [9] 100 % of control

CC1(C)N=C(N)N=C(N)N1c1ccc(OCCNS(=O)(=O)c2ccc(S(=O)(=O)F)cc2)c(Cl)c1
inactive: [2] 105 % of control

O=C(C=Nc1ccc([N+](=O)[O-])cc1)c1c2ccccc2cc2ccccc12
inactive: dose: 100.0 mg/kg/injection, schedule: Q01DX001 (ip), vehicle: Klucel (hydroxypropylcellulose) (HPC) 107 % of control | dose: 200.0 mg/kg/injection, schedule: Q01DX001 (ip), vehicle: Klucel (hydroxypropylcellulose) (HPC) 102 % of control | dose: 400.0 mg/kg/injection, schedule: Q01DX001 (ip), vehicle: Klucel (hydroxypropylcellulose) (HPC) 106 % of control

CCN(CC)CC(=O)CC12CC3CC(CC(C3)C1)C2
inactive: dose: 0.8 mg/kg/injection, schedule: Q04DX002 (ip), vehicle: saline 93 % of control | dose: 1.6 mg/kg/injection, schedule: Q04DX002 (ip), vehicle: saline 97 % of control | dose: 3.1 mg/kg/injection, schedule: Q04DX002 (ip), vehicle: saline 101 % of control | dose: 6.25 mg/kg/injection, schedule: Q04DX002 (ip), vehicle: saline 97 % of control

N#CS.[Tl]
inactive: dose: 9.5 mg/kg/injection, schedule: Q01DX001 (ip), vehicle: carboxymethylcellulose (CMC) 92 % of control | dose: 19.0 mg/kg/injection, schedule: Q01DX001 (ip), vehicle: carboxymethylcellulose (CMC) 103 % of control | dose: 38.0 mg/kg/injection, schedule: Q01DX001 (ip), vehicle: carboxymethylcellulose (CMC) 105 % of control

O=C(CCN1CC=C(c2ccccc2)CC1)NCc1ccccc1
inactive: [1] 95 % of control | [2] 98 % of control | [3] 93 % of control | [4] 100 % of control | [5] 95 % of control | [6] 100 % of control

CC(=O)OC1C(OC(C)=O)C(OS(=O)(=O)c2ccc(C)cc2)C(OC(C)=O)C(OS(=O)(=O)c2ccc(C)cc2)C1OC(C)=O (stereo unspecified)
inactive: [2] 97 % of control | [4] 92 % of control | [6] 95 % of control

CCOC(=O)C/C(=C/c1ccco1)C(=O)OCC
inactive: [7] 86 % of control | dose: 100.0 mg/kg/injection, schedule: Q04DX003 (ip), vehicle: saline 89 % of control | [8] 92 % of control | dose: 200.0 mg/kg/injection, schedule: Q04DX003 (ip), vehicle: saline 96 % of control | [9] 89 % of control | dose: 400.0 mg/kg/injection, schedule: Q04DX003 (ip), vehicle: saline 89 % of control

NNc1c2ccccc2nc2ccccc12
inactive: dose: 0.5 mg/kg/injection, schedule: Q04DX003 (ip), vehicle: Klucel (hydroxypropylcellulose) (HPC) 103 % of control | dose: 1.0 mg/kg/injection, schedule: Q04DX003 (ip), vehicle: Klucel (hydroxypropylcellulose) (HPC) 100 % of control | dose: 2.0 mg/kg/injection, schedule: Q04DX003 (ip), vehicle: Klucel (hydroxypropylcellulose) (HPC) 95 % of control

Cc1cc(C)c(NC(=O)Nc2cccc(Cl)c2)c(C)c1
inactive: dose: 100.0 mg/kg/injection, schedule: Q01DX009 (ip), vehicle: Klucel (hydroxypropylcellulose) (HPC) 100 % of control | dose: 100.0 mg/kg/injection, schedule: Q04DX003 (ip), vehicle: Klucel (hydroxypropylcellulose) (HPC) 101 % of control | dose: 200.0 mg/kg/injection, schedule: Q01DX009 (ip), vehicle: Klucel (hydroxypropylcellulose) (HPC) 105 % of control | dose: 200.0 mg/kg/injection, schedule: Q04DX003 (ip), vehicle: Klucel (hydroxypropylcellulose) (HPC) 94 % of control | dose: 400.0 mg/kg/injection, schedule: Q04DX003 (ip), vehicle: Klucel (hydroxypropylcellulose) (HPC) 89 % of control

NC(CCC(=O)NC(CSC(c1ccccc1)(c1ccccc1)c1ccccc1)C(=O)NCC(=O)O)C(=O)O (stereo unspecified)
inactive: dose: 25.0 mg/kg/injection, schedule: Q01DX009 (ip), vehicle: saline 109 % of control | dose: 50.0 mg/kg/injection, schedule: Q01DX009 (ip), vehicle: saline 104 % of control and 114 % of control | dose: 100.0 mg/kg/injection, schedule: Q01DX009 (ip), vehicle: saline 107 % of control and 113 % of control | dose: 200.0 mg/kg/injection, schedule: Q01DX009 (ip), vehicle: saline 124 % of control | dose: 300.0 mg/kg/injection, schedule: Q01DX009 (ip), vehicle: saline 90 % of control

CCCCCCCCCCC(C1CCCC2CCCCC21)C1CCCC2CCCCC21 (stereo unspecified)
inactive: [10] 100 % of control | [11] 102 % of control | [12] 94 % of control

[B-][NH2+]CC[NH2+][B-]
inactive: [9] 117 % of control

COc1ccc(C2NC(=O)NC2=O)cc1 (stereo unspecified)
inactive: dose: 50.0 mg/kg/injection, schedule: Q01DX001 (ip), vehicle: saline 105 % of control | [7] 105 % of control | [2] 108 % of control | [8] 102 % of control | [4] 103 % of control | [9] 111 % of control | [6] 92 % of control

C=CCCCCCCCCC(=O)NCC1CC1
inactive: [2] 98 % of control | [4] 92 % of control | [6] 88 % of control

OC1CCCCC1C1CCCCC1 (stereo unspecified)
inactive: [13] 94 % of control | [1] 94 % of control | dose: 100.0 mg/kg/injection, schedule: Q04DX002 (ip), vehicle: saline 121 % of control | dose: 300.0 mg/kg/injection, schedule: Q04DX002 (ip), vehicle: saline 107 % of control | dose: 400.0 mg/kg/injection, schedule: Q04DX002 (ip), vehicle: saline 100 % of control

O=C(CCC(=O)c1ccc(Br)cc1)c1ccc(Br)cc1
inactive: dose: 50.0 mg/kg/injection, schedule: Q01DX001 (ip), vehicle: carboxymethylcellulose (CMC) 92 % of control | [10] 97 % of control | [11] 103 % of control | [12] 90 % of control

Cc1nc2c(=O)n(C)c(=O)n(C)c2n1C
inactive: [13] 101 % of control | [1] 98 % of control | [2] 100 % of control | [3] 100 % of control | [4] 98 % of control

CSc1ncnc2c1cnn2C1OC(CCC#N)C(O)C1O (stereo unspecified)
inactive: [7] 97 % of control | [8] 98 % of control
